# Measurements taken from patent publication US11634390B2, “Agricultural chemicals” (GLOBACHEM NV, priority 2016, dated 2023).
# Assays:
# Format in all cases: in vivo
# [1] = system: Echinochloa crus-galli; assay: Herbicidal screen, post-emergence spray of seedlings in pots: Barnyard grass; details: Echinochloa crus-galli, post-emergence, 240 h, assessed 10 days after treatment, read-out: percentage increase in necrosis relative to the control
# Procedure: (§1) Compounds were screened at four concentrations (100, 50, 25 and 12.5 g/ha) against four weed species (Stellaria media—Chickweed; Abutilon theophrasti—velvetleaf; Amaranthus retroflexus—common amaranthus; Echinochloa crus-galli—Barnyard grass) and maize as a crop species. Seed were sown in 12.5 cm diameter pots (20 per pot for the weed species and 5 for maize). Seedlings were sprayed with 2 ml of compound two weeks after sowing, with 2 ml water used as the control. Each treatment was replicated three times. Plants were maintained at 20° C. and assessed 10 days after treatment. The assessment was based on the % plant in each pot showing growth. The data is presented in Table 1 in which d represents no detected effect at this concentration; c represents a percentage increase in necrosis relative to the control of 0.1-50; b represents a percentage increase in necrosis of 50-80; and a represents a percentage increase in necrosis of 80-100.
# [2] = system: maize; assay: Herbicidal screen, post-emergence spray of seedlings in pots: crop species; details: Zea mays, post-emergence, 240 h, assessed 10 days after treatment, read-out: percentage increase in necrosis relative to the control
# Procedure: as §1
# [3] = system: Abutilon theophrasti; assay: Herbicidal screen, post-emergence spray of seedlings in pots: velvetleaf; details: Abutilon theophrasti, post-emergence, 240 h, assessed 10 days after treatment, read-out: percentage increase in necrosis relative to the control
# Procedure: as §1
# [4] = system: Stellaria media; assay: Herbicidal screen, post-emergence spray of seedlings in pots: Chickweed; details: Stellaria media, post-emergence, 240 h, assessed 10 days after treatment, read-out: percentage increase in necrosis relative to the control
# Procedure: as §1
# [5] = system: four weed species; assay: Herbicidal screen, summary across the four weed species; details: summary in words, 12.5-100 g/ha
# Procedure: as §1
# [6] = system: Amaranthus retroflexus; assay: Herbicidal screen, post-emergence spray of seedlings in pots: common amaranthus; details: Amaranthus retroflexus, post-emergence, 240 h, assessed 10 days after treatment, read-out: percentage increase in necrosis relative to the control
# Procedure: as §1
SMILES,pest or weed control at 12.5 g/ha [1],pest or weed control at 25 g/ha [1],pest or weed control at 50 g/ha [1],pest or weed control at 100 g/ha [1],plant injury at 12.5 g/ha [2],plant injury at 25 g/ha [2],plant injury at 50 g/ha [2],plant injury at 100 g/ha [2],pest or weed control at 12.5 g/ha [3],pest or weed control at 25 g/ha [3],pest or weed control at 50 g/ha [3],pest or weed control at 100 g/ha [3],pest or weed control at 12.5 g/ha [4],pest or weed control at 25 g/ha [4],pest or weed control at 50 g/ha [4],pest or weed control at 100 g/ha [4],herbicidal activity against the weed species [5],pest or weed control at 12.5 g/ha [6],pest or weed control at 25 g/ha [6],pest or weed control at 50 g/ha [6],also measured
"Cn1c(C(F)(F)F)cc(=O)n(-c2cc(C(=O)NS(=O)(=O)C3(C)CC3)c(Cl)cc2F)c1=O [Example 7, 2-Chloro-4-fluoro-5-(3-methyl-2,6-dioxo-4-(trifluoromethyl)-3,6-dihydropyrimidin-1(2H)-yl)-N-((1-methylcyclopropyl)sulfonyl)benzamide]",0.1 to 50%,0.1 to 50%,50 to 80%,80 to 100%,0.1 to 50%,0.1 to 50%,0.1 to 50%,50 to 80%,0.1 to 50%,80 to 100%,80 to 100%,80 to 100%,0.1 to 50%,50 to 80%,50 to 80%,80 to 100%,good activity across several of the weed species,80 to 100%,80 to 100%,80 to 100%,pest or weed control at 100 g/ha [6]: 80 to 100%
"Cn1c(C(F)(F)F)cc(=O)n(-c2cc(C(=O)NS(=O)(=O)C3CCCC3)c(Cl)cc2F)c1=O [Example 13, 2-Chloro-N-(cyclopentylsulfonyl)-4-fluoro-5-(3-methyl-2,6-dioxo-4-(trifluoromethyl)-3,6-dihydropyrimidin-1(2H)-yl)benzamide]",0.1 to 50%,0.1 to 50%,0.1 to 50%,0.1 to 50%,0.1 to 50%,0.1 to 50%,0.1 to 50%,0.1 to 50%,0.1 to 50%,50 to 80%,50 to 80%,80 to 100%,0.1 to 50%,0.1 to 50%,0.1 to 50%,0.1 to 50%,good activity across several of the weed species,50 to 80%,50 to 80%,80 to 100%,pest or weed control at 100 g/ha [6]: 80 to 100%
"Cn1c(C(F)(F)F)cc(=O)n(-c2cc(C(=O)NS(=O)(=O)C3CCCCC3)c(Cl)cc2F)c1=O [Example 14, 2-Chloro-N-(cyclohexylsulfonyl)-4-fluoro-5-(3-methyl-2,6-dioxo-4-(trifluoromethyl)-3,6-dihydropyrimidin-1(2H)-yl)benzamide]",0.1 to 50%,0.1 to 50%,0.1 to 50%,0.1 to 50%,0.1 to 50%,0.1 to 50%,0.1 to 50%,0.1 to 50%,50 to 80%,50 to 80%,80 to 100%,80 to 100%,0.1 to 50%,0.1 to 50%,50 to 80%,80 to 100%,good activity across several of the weed species,80 to 100%,80 to 100%,80 to 100%,pest or weed control at 100 g/ha [6]: 80 to 100%
"Cn1c(C(F)(F)F)cc(=O)n(-c2cc(C(=O)NS(=O)(=O)C3(F)CC3)c(Cl)cc2F)c1=O [Example 16, 2-Chloro-4-fluoro-N-((1-fluorocyclopropyl)sulfonyl)-5-(3-methyl-2,6-dioxo-4-(trifluoromethyl)-3,6-dihydropyrimidin-1(2H)-yl)benzamide]",0.1 to 50%,0.1 to 50%,50 to 80%,50 to 80%,0.1 to 50%,0.1 to 50%,0.1 to 50%,0.1 to 50%,0.1 to 50%,0.1 to 50%,50 to 80%,80 to 100%,0.1 to 50%,0.1 to 50%,0.1 to 50%,80 to 100%,good activity across several of the weed species,0.1 to 50%,0.1 to 50%,80 to 100%,pest or weed control at 100 g/ha [6]: 80 to 100%
"CCC1(S(=O)(=O)NC(=O)c2cc(-n3c(=O)cc(C(F)(F)F)n(C)c3=O)c(F)cc2Cl)CC1 [Example 17, 2-Chloro-N-((1-ethylcyclopropyl)sulfonyl)-4-fluoro-5-(3-methyl-2,6-dioxo-4-(trifluoromethyl)-3,6-dihydropyrimidin-1(2H)-yl)benzamide]",0.1 to 50%,50 to 80%,50 to 80%,50 to 80%,0.1 to 50%,0.1 to 50%,0.1 to 50%,0.1 to 50%,0.1 to 50%,0.1 to 50%,50 to 80%,80 to 100%,0.1 to 50%,50 to 80%,50 to 80%,80 to 100%,good activity across several of the weed species,0.1 to 50%,50 to 80%,80 to 100%,pest or weed control at 100 g/ha [6]: 80 to 100%
